# Read-outs that look alike come from different tables or passages of the source.
# Legend:
# Mtb PrcAB-OG [1] = target: T1, Mtb PrcAB-OG (Mycobacterium tuberculosis, UniProt P9WHT9); assay: biochemical; type: biochemical
# T1 construct: made in house; host or cells: E. coli
# Target sequence in this assay (P9WHT9 58-291): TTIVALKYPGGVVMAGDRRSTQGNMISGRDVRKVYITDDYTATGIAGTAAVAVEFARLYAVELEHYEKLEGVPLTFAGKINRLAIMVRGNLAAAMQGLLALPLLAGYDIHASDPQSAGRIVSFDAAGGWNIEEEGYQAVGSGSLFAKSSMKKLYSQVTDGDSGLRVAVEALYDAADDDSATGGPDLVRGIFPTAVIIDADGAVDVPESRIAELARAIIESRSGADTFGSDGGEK
# α-chymotrypsin = α-chymotrypsin (Bos taurus, UniProt P00766); assay: Inhibition of α-chymotrypsin; type: biochemical, mammalian
# Description: The unique inactivation mechanism of oxathiazol-2-ones led to an examination of selectivity of these compounds among non-proteasomal proteases, such as chymotrypsin, trypsin, cathepsin B, and matrix metalloproteinase (MMP)-2, representatives of the serine-, cysteine-, and matrix metalloproteinase classes. […] In contrast to the proteasome's N-terminal Thr active site residue, chymotrypsin's active site Ser residue is positioned internally. Given the lack of a terminal NH2 group, the acyl-enzyme intermediate formed by reaction of oxathiazol-2-one with the γ-OH of chymotrypsin's active site Ser can undergo either aqueous hydrolysis to reactivate the enzyme or regeneration of oxathiazol-2-one by the released —OH or —SH group attacking —CO-γO-Ser.
# Mtb H37Rv = assay: Mycobactericidal activity against Mtb (CFU); type: cell-based, Mycobacterium tuberculosis
# M. bovis BCG = assay: microbe, parasite or virus in culture; type: cell-based, Mycobacterium bovis BCG; conditions: for log reduction at 25 µM: Mycobacterium tuberculosis variant bovis BCG, BCG, 96 h, read-out: BCG killing (25 μM); for reduction of colony forming units (CFU): cells exposed to DETA-NO 50 μM
# [2] = target: human 20S-β5 (Hu20S PA28) (Homo sapiens, UniProt P28074); assay: Kinetics of inhibition of human 20S proteasome β5 site in presence of PA28; type: biochemical
# Mtb proteasome [3] = target: T2, Mtb proteasome (Mycobacterium tuberculosis, UniProt P9WHT9); assay: Preliminary inhibition studies of Mtb proteasome with oligopeptide substrates; type: biochemical
# T2 construct: made in house; host or cells: E. coli
# [4] = system: human monocyte-derived macrophages; assay: Cytotoxicity, human monocyte-derived macrophages; type: cell-based; conditions: 7 days
# Description: (§1) Given that proteasome-inhibiting oxathiazol-2ones killed mycobacteria, their impact on the survival of mammalian cells was tested. […] In contrast, less than 10% of Vero cells remained viable after 4-day exposure to 25 nM bortezomib. Finally, because most Mtb in nature resides in human macrophages, we exposed human monocyte-derived macrophages (mostly multinucleated giant cells) to 100 μM GL3, GL5 or GL6 for 7 days.
# [5] = system: Vero monkey kidney epithelial cells; assay: Cytotoxicity, Vero cells; type: cell-based; conditions: for cytotoxicity: up to 50 μM, 4 days
# Description: as §1
# Mtb PrcAB-OG [6] = target: T1, Mtb PrcAB-OG; type: biochemical
# Target sequence in this assay (P9WHT9 58-291): as above
# Target sequence in this assay (P9WHU1 9-248 partner, looked up, natural form): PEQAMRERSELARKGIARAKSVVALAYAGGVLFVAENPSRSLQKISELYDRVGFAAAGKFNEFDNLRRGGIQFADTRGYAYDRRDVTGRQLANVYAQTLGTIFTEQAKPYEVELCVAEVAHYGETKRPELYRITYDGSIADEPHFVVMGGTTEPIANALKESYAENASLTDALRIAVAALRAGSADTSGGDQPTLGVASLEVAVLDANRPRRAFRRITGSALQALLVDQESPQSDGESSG
# human lung fibroblasts = assay: Cytotoxicity, human lung fibroblasts; type: cell-based; conditions: up to 50 μM, 4 days
# Description: as §1
# human skin fibroblasts = assay: Cytotoxicity, human skin fibroblasts; type: cell-based; conditions: up to 50 μM, 4 days
# Description: as §1
# [7] = system: mouse macrophage-like RAW264.7 cells; assay: Cytotoxicity, RAW264.7 cells; type: cell-based; conditions: up to 50 μM, 4 days
# Description: as §1
# human proteasome = human proteasome (Homo sapiens, UniProt P28072+P28074+Q99436); assay: Preliminary inhibition studies of human proteasome with oligopeptide substrates
# Mtb proteasome [8] = target: T2, Mtb proteasome; type: biochemical; conditions: dialysis 18 hours against inhibitor-free buffer
# [9] = target: proteasome in M. bovis BCG (Mycobacterium bovis, UniProt A1KKF3); assay: cell-based; conditions: read-out: intrabacterial proteasome inhibition
# Mtb PrcAB-OG [10] = assay: biochemical; type: biochemical, Mycobacterium tuberculosis
# [11] = Table 1, read-out: kobs/[I] Mtb-OG
# [12] = Mycobacterium tuberculosis, H37RV, 96 h; read-out: Mtb killing (50 μM)
# [13] = 50 μM, 4 days, Mtb exposed overnight to 100 μM DETA
# [14] = 50 μM, 4 days, Mtb exposed overnight to 100 μM DETA-NO
# T2 sequence (P9WHT9 58-291): as the sequence (P9WHT9 58-291) above
# T2 sequence (P9WHU1 9-248 partner, looked up, natural form): as the sequence (P9WHU1 9-248 partner, looked up, natural form) above
# Chain of proteasome in M. bovis BCG (A1KKF3 whole entry, looked up): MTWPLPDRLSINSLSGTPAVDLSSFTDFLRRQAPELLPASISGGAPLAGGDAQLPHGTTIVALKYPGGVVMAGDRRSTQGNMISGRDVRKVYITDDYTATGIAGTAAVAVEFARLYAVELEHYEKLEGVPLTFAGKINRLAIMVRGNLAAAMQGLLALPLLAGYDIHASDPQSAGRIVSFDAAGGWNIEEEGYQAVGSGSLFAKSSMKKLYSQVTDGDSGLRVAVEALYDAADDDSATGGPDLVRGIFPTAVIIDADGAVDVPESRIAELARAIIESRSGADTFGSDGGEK
smiles,measurement,setting,value
COc1cc(OC)cc(-c2nsc(=O)o2)c1 [HT1147],kinact/KI,Mtb PrcAB-OG [1]; [11],45.8 M⁻¹ s⁻¹
same,IC50,α-chymotrypsin,83.9 µM
Cc1cccc(-c2nsc(=O)o2)c1 [HT1118],log reduction at 50 µM,Mtb H37Rv; [12],1.7
same,log reduction at 25 µM,M. bovis BCG,0.8
same,kinact/KI,Mtb PrcAB-OG [1]; read-out: kobs/[I] Mtb-OG,133 M⁻¹ s⁻¹
same,kinact/KI,[2]; read-out: kobs/[I] Hu20S PA28,11.3 M⁻¹ s⁻¹
same,IC50,α-chymotrypsin,15.8 µM
"O=c1oc(-c2cnccn2)ns1 [5-(pyrazin-2-yl)-1,3,4-oxathiazol-2-one]",inhibition of Mtb proteasome,Mtb proteasome [3],"found to inhibit the Mtb proteasome, albeit less potently than GL5"
O=c1oc(-c2ccccn2)ns1 [HT1043],log reduction at 50 µM,Mtb H37Rv; [12],1.8
same,log reduction at 25 µM,M. bovis BCG,1
same,kinact/KI,Mtb PrcAB-OG [1]; read-out: kobs/[I] Mtb-OG,460 M⁻¹ s⁻¹
same,kinact/KI,[2]; read-out: kobs/[I] Hu20S PA28,0.2 M⁻¹ s⁻¹
same,IC50,α-chymotrypsin,16.6 µM
Cc1ccc(-c2nsc(=O)o2)s1 [HT1044],log reduction at 50 µM,Mtb H37Rv; [12],2
same,log reduction at 25 µM,M. bovis BCG,1.7
same,kinact/KI,Mtb PrcAB-OG [1]; [11],1070 M⁻¹ s⁻¹
same,kinact/KI,[2]; read-out: kobs/[I] Hu20S PA28,148 M⁻¹ s⁻¹
same,IC50,α-chymotrypsin,8.02 µM
O=c1oc(-c2ccccc2)ns1 [HT1146],kinact/KI,Mtb PrcAB-OG [1]; [11],409 M⁻¹ s⁻¹
same,kinact/KI,[2]; read-out: kobs/[I] Hu20S PA28,31.3 M⁻¹ s⁻¹
same,IC50,α-chymotrypsin,10 µM
O=c1oc(-c2cccc(C(F)(F)F)c2)ns1 [HT1086],kinact/KI,Mtb PrcAB-OG [1]; [11],155 M⁻¹ s⁻¹
same,kinact/KI,[2]; read-out: kobs/[I] Hu20S PA28,0.4 M⁻¹ s⁻¹
same,IC50,α-chymotrypsin,48.1 µM
Cc1ccc(-c2nsc(=O)o2)cc1 [HT1117],kinact/KI,Mtb PrcAB-OG [1]; [11],433 M⁻¹ s⁻¹
same,kinact/KI,[2]; read-out: kobs/[I] Hu20S PA28,53.4 M⁻¹ s⁻¹
same,IC50,α-chymotrypsin,3.67 µM
O=c1oc(-c2ccco2)ns1 [HT1113],log reduction at 50 µM,Mtb H37Rv; [12],2
same,log reduction at 25 µM,M. bovis BCG,1
same,kinact/KI,Mtb PrcAB-OG [1]; [11],435 M⁻¹ s⁻¹
same,kinact/KI,[2]; read-out: kobs/[I] Hu20S PA28,10.1 M⁻¹ s⁻¹
same,IC50,α-chymotrypsin,22.7 µM
Cc1sc(-c2nsc(=O)o2)cc1[N+](=O)[O-] [HT1171],kinact/KI,Mtb PrcAB-OG [1]; [11],3490 M⁻¹ s⁻¹
COc1cccc(-c2nsc(=O)o2)c1 [HT1054],log reduction at 50 µM,Mtb H37Rv; [12],2
same,log reduction at 25 µM,M. bovis BCG,> 3
same,kinact/KI,Mtb PrcAB-OG [1]; read-out: kobs/[I] Mtb-OG,636 M⁻¹ s⁻¹
same,kinact/KI,[2]; read-out: kobs/[I] Hu20S PA28,14.8 M⁻¹ s⁻¹
same,IC50,α-chymotrypsin,2.19 µM
O=c1oc(-c2cc([N+](=O)[O-])cs2)ns1 [HT1016],log reduction at 50 µM,Mtb H37Rv; [12],2.2
same,log reduction at 25 µM,M. bovis BCG,> 3
same,kinact/KI,Mtb PrcAB-OG [1]; [11],732 M⁻¹ s⁻¹
same,kinact/KI,[2]; read-out: kobs/[I] Hu20S PA28,12.3 M⁻¹ s⁻¹
same,IC50,α-chymotrypsin,5.87 µM
O=c1oc(-c2cccc(F)c2)ns1 [HT1071],log reduction at 50 µM,Mtb H37Rv; [12],2.2
same,log reduction at 25 µM,M. bovis BCG,> 3
same,kinact/KI,Mtb PrcAB-OG [1]; read-out: kobs/[I] Mtb-OG,1060 M⁻¹ s⁻¹
same,kinact/KI,[2]; read-out: kobs/[I] Hu20S PA28,31.3 M⁻¹ s⁻¹
same,IC50,α-chymotrypsin,2.67 µM
O=c1oc(-c2cccc([N+](=O)[O-])c2)ns1 [HT1042],log reduction at 50 µM,Mtb H37Rv; [12],1.7
same,log reduction at 25 µM,M. bovis BCG,2
same,kinact/KI,Mtb PrcAB-OG [1]; read-out: kobs/[I] Mtb-OG,729 M⁻¹ s⁻¹
same,kinact/KI,[2]; read-out: kobs/[I] Hu20S PA28,10.3 M⁻¹ s⁻¹
same,IC50,α-chymotrypsin,3.14 µM
Cc1cc(-c2nsc(=O)o2)c(S(C)(=O)=O)s1 [GL6],morphologic sign of cytotoxicity,[4]; 100 μM,no morphologic sign of cytotoxicity
same,reduction of number of CFU,Mtb H37Rv; [13],did not lead to a reduction of CFU
same,reduction of number of CFU,Mtb H37Rv; [14],did not lead to a reduction of CFU
same,cytotoxicity,[5],no evident cytotoxicity
same,inhibition of Mtb proteasome,Mtb proteasome [3],inhibited neither
same,prevention of β-casein degradation by Mtb proteasome,Mtb PrcAB-OG [6],but not GL6
same,cytotoxicity,human lung fibroblasts,no evident cytotoxicity
same,cytotoxicity,human skin fibroblasts,no evident cytotoxicity
same,cytotoxicity,[7],no evident cytotoxicity
same,inhibition of human proteasome,human proteasome,inhibited neither
O=c1oc(-c2ccc([N+](=O)[O-])cc2)ns1 [HT1041],log reduction at 50 µM,Mtb H37Rv; [12],1.7
same,log reduction at 25 µM,M. bovis BCG,0.8
same,kinact/KI,Mtb PrcAB-OG [1]; read-out: kobs/[I] Mtb-OG,598 M⁻¹ s⁻¹
same,kinact/KI,[2]; read-out: kobs/[I] Hu20S PA28,12.9 M⁻¹ s⁻¹
same,IC50,α-chymotrypsin,2.08 µM
"CC(C)C[C@H](NC(=O)[C@H](Cc1ccccc1)NC(=O)c1cnccn1)B(O)O [bortezomib, reference compound]",morphologic sign of cytotoxicity,[4]; 0.5 μM,rounded up or appeared to disintegrate
same,Vero cells remaining viable,"[5]; 25 nM, 4-day exposure",less than 10%
same,activity recovered after dialysis,Mtb proteasome [8],70%
C[C@@]12OC(=O)[C@]1([C@@H](O)[C@@H]1C=CCCC1)NC(=O)[C@@H]2CCCl [NPI-0052],activity recovered after dialysis,Mtb proteasome [8],did not restore the activity
CSc1sc(C)cc1-c1nsc(=O)o1 [GL5],morphologic sign of cytotoxicity,[4]; 100 μM,no morphologic sign of cytotoxicity
same,reduction of number of CFU,Mtb H37Rv; [13],not if they had been exposed to DETA
same,reduction of number of CFU,Mtb H37Rv; [14],47 fold
same,log reduction at 50 µM,"Mtb H37Rv; Mycobacterium tuberculosis, H37RV, 96 h, read-out: Mtb killing (50 μM)",1.4
same,cytotoxicity,[5],no evident cytotoxicity
same,inhibition at 10 µM,[9],≥ 50%
same,activity recovered after dialysis,Mtb proteasome [8],did not restore the activity
same,cytotoxicity,human lung fibroblasts,no evident cytotoxicity
same,cytotoxicity,human skin fibroblasts,no evident cytotoxicity
same,reduction of colony forming units (CFU),"M. bovis BCG; 25 μM, 4 days",400 fold
same,reduction of colony forming units (CFU),"M. bovis BCG; 50 μM, 4 days",more than 2000 fold
same,log reduction at 25 µM,M. bovis BCG,> 2
same,killing of BCG,"M. bovis BCG; alone and with DETA-NO 50 μM, 4 days",able to kill BCG
same,Hill coefficient (Mtb PrcAB-OG),Mtb PrcAB-OG [1],1
same,effect of substrate concentration on rate of inactivation,Mtb PrcAB-OG [1],Increasing substrate concentration reduced the rate of proteasome inactivation
same,kinact/K,"Mtb PrcAB-OG [1]; Mtb PrcAB-OG, corrected for substrate competition, […]",625 ± 12.2^b M^−1s^−1
same,kinact/KI,Mtb PrcAB-OG [1]; [11],376 M⁻¹ s⁻¹
same,kinact/KI,"Mtb PrcAB-OG [1]; corrected for substrate competition, read-out: kinact/K for GL5 vs Mtb proteasome",624 ± 12.2 M⁻¹ s⁻¹
same,kinact/KI,"Mtb PrcAB-OG [1]; slope of kobs vs [I], not corrected for substrate competition, read-out: apparent value of kobs/[I]",476 ± 9.3 M⁻¹ s⁻¹
same,improvement in species selectivity ratio relative to bortezomib,Mtb PrcAB-OG [10],~1160 fold
same,selectivity toward Mtb proteasome over human β5 proteasome subunit,Mtb PrcAB-OG [10],64 fold
same,Ratio,Mtb PrcAB-OG [10]; kobs/[I] Mtb-OG versus Hu20S PA28,1033
same,reversibility of inactivation of human proteasome β5 subunit,[2]; plots of kobs vs [I] not passing through origin,reversible
same,kinact/KI,[2]; read-out: kobs/[I] H20S-β5,9.8 ± 1.3 M⁻¹ s⁻¹
same,kinact/KI,[2]; read-out: kobs/[I] Hu20S PA28,0.4 M⁻¹ s⁻¹
same,cytotoxicity,[7],no evident cytotoxicity
same,IC50,α-chymotrypsin,0.064 µM
same,Ki,"α-chymotrypsin; reversible, time-independent inhibition",0.064 µM
